TGI and GI50 data for 20 compounds are collected here from PubChem BioAssay (NCI).

“And” between values parts separate entries of the source, which are not always exact repeats. Equal values may be shown once.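 Following 48 hours of exposure in 96-well plates, responses at five concentrations were used to interpolate endpoints linearly. GI50: concentration for 50% inhibition of growth. At the TGI there is no net growth.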

Holding throughout (assay): NCI-60 cell line screen, 48 h
In assay [1] the test system is A549 NSCLC.
Assay [2] has as its system HOP-62 NSCLC.
Assay [3] deals with LOX IMVI melanoma.
Assay [4] deals with RPMI-8226 leukemia.
Assay [5] relates to SK-MEL-28 melanoma.
Assay [6] deals with SK-MEL-5 melanoma.
Assay [7] relates to SN12C renal.
The test system of assay [8] is SR leukemia.
For assay [9], the system named is UACC-62 melanoma.
Assay [10] deals with BT-549 breast.
For assay [11], the system named is NCI-H226 lung.
The test system of assay [12] is MDA-N.

Take `CCOc1ncnc2ccc(Cl)c(I)c12`: the TGI in assay [1], in assay [2], in assay [3], in [4], in assay [5] and in assay [6] was above 100 µM throughout. For the same compound, the TGI in [7], in assay [8] and in assay [9] was above 100 µM in each case.
`COc1cc2c3c(c1OC)C(=O)C(=O)C1=C3N(CCC1)CC2`: the TGI in assay [1] was above 100 µM; in [10] it was 72.6 µM; in assay [2], 96.9 µM; in assay [3], above 100 µM; in [5] it was above 100 µM; in assay [6] it was above 100 µM. Also, the TGI in assay [7] was above 100 µM; in assay [8], 55.5 µM; in assay [9] it was 42 µM.
As for `CC(C)C[C@H](NC(=O)CCc1cccc2ccccc12)B(O)O`, the TGI in [1] stood at 49.7 µM; in [10], 2.15 µM; in assay [2] it was 14.3 µM; in assay [3], 1.77 µM; in assay [11] it was 0.392 µM; in assay [4], 3.95 µM. For the same compound, the TGI was 4.05 µM in assay [5]; 1.85 µM in assay [6]; 21 µM in [7]; 2.2 µM in assay [8]; 5.59 µM in assay [9].
Turning to `COc1cc(OC)cc(C(=O)Cc2c(C(=O)c3ccccc3)c3ccccc3n2C(=O)c2ccccc2)c1`, the TGI in assay [1], in assay [2], in [3], in assay [11], in assay [4] and in [5] was above 100 µM each time. Moreover, the TGI in assay [6] is 35.1 µM; in assay [7] it was above 100 µM; in assay [8] it was above 100 µM; in assay [9], above 100 µM.
Consider `COc1ccc(NS(=O)(=O)c2ccc(N=C3C=C(Nc4ccc(S(=O)(=O)Nc5ccc(OC)nn5)cc4)C(=O)c4ccccc43)cc2)nn1`, for which the TGI was 32.2 µM in assay [1]; 30.4 µM in assay [3]; 34.2 µM in assay [11]; above 100 µM in [4]; 31.4 µM in assay [5]; 35 µM in [6]. For the same compound, the TGI was 38.6 µM in assay [7], above 100 µM in [8] and 32.6 µM in assay [9].
For the compound `C[C@H](CO)C1=CC(C#C[Si](C)(C)C)N(C(=O)Oc2ccccc2)c2ccccc21` (stereo partly drawn), the TGI in assay [1] was 26.8 µM; in assay [2], 19.4 µM; in [3], 33.5 µM; in assay [12] it was 13.3 µM; in assay [11] it was 34.6 µM; in [4], above 100 µM. For the same compound, the TGI came out at 37.5 µM in [5]; 26.6 µM in assay [6]; 25.5 µM in assay [7]; 82.5 µM in assay [8]; 19.9 µM in [9].
Consider `CC1=CC(=O)/C(=C/N2C(=O)CNC2=S)C(=O)O1`, for which the TGI in assay [1], in assay [2], in assay [3], in [12], in [11] and in [5] was above 100 µM in each case. Besides, the TGI in assay [6] and in assay [7] was above 100 µM in each case.
Turning to `CC(C)C1=CC23CCC4C(C)(C(=O)O)CCCC4(C)C2CC1C1C(=O)N(c2cccc(N4C(=O)C5C6CC7C8(C)CCCC(C)(C(=O)O)C8CCC7(C=C6C(C)C)C5C4=O)c2)C(=O)C13` (stereo not drawn), the TGI in assay [1] was above 100 µM; in assay [2] it was 25.2 µM; in [11], 32.5 µM; in [5], 21.6 µM; in assay [6] it was 28.6 µM; in assay [7] it was 27.1 µM. Further, the TGI was 45 µM in assay [8] and 80.1 µM in [9].
In the case of `O=C(N[C@@H](Cc1ccccc1)B(O)O)[C@H](Cc1cccc2ccccc12)NC(=O)N1CCOCC1`, the GI50 in assay [1] is 0.0123 µM. In addition, the TGI is 0.47 µM in assay [1]; 0.00335 µM in assay [10]; 0.0316 µM and 0.0488 µM in assay [2]; 0.00343 µM in assay [3]; 0.00164 µM in [11]; 0.00414 µM in assay [4]. The TGI in [5] is 0.00367 µM; in assay [6] it was 0.00392 µM and 0.014 µM; in assay [7] it was 0.0226 µM and 0.0268 µM; in [8], 0.0126 µM; in [9] it was 0.0119 µM and 0.0391 µM.
Turning to `CCOc1cc(/C=C2\N=C(c3ccccc3)N(c3nc4ccccc4s3)C2=O)ccc1O`, the TGI in assay [2] was above 100 µM; in [3], above 100 µM; in assay [12] it was above 100 µM; in assay [11] it was above 100 µM; in assay [4] it was 65.4 µM; in assay [5] it was above 100 µM. In addition, the results for the TGI in [6] and in [8] were 41.4 µM and above 100 µM, respectively.
For the compound `CCCCC(N)CSSCC(N)CCCC` (stereo not drawn), the TGI in [1] is above 100 µM; in assay [2] it was 95.4 µM; in [3], 32.1 µM; in [11], 43.6 µM; in assay [4], 61.5 µM; in assay [5], 34.8 µM. In addition, the TGI in assay [6] was 55.7 µM; in [7] it was 36.1 µM; in assay [8] it was 45.7 µM; in [9], 41.1 µM.
Take `Cn1cc2ccccc2c1-c1nc(F)nc(Nc2ccc(N)cc2)n1`: the TGI came out at 65.3 µM in assay [1]; 55.8 µM in [2]; 27 µM in assay [3]; 32.7 µM in assay [11]; 76.5 µM in assay [4]; 30.6 µM in assay [5]. The TGI worked out at 25 µM in assay [6], 47.4 µM in assay [7] and 72.4 µM in assay [8].
For the compound `Cc1ccc(NC(=S)N=Nc2c(O)[nH]c3ccccc23)cc1`, the TGI in assay [1], in [2], in assay [3], in [12], in assay [11] and in assay [4] was above 100 µM throughout. Besides, the TGI in assay [5], in [6], in assay [7], in assay [8] and in assay [9] was above 100 µM throughout.
As for `NS(=O)(=O)c1ccc(N2C(=O)C(=O)N(c3ccccc3)C2=S)cc1`, the TGI in assay [1], in [2], in [3], in [12], in assay [11] and in [4] was above 100 µM throughout. Moreover, the TGI in assay [5], in assay [6], in assay [7], in assay [8] and in [9] was above 100 µM throughout.
As for `CC(C)=CCC/C(C)=C/CC/C(C)=C/C1CCC(=O)C1(C)C` (stereo not drawn), the TGI in assay [1] was 77.6 µM; in assay [2], 69.6 µM; in assay [3] it was 28.9 µM; in assay [11], 29.4 µM; in assay [4] it was 42.4 µM; in [5], 54 µM. For the same compound, the TGI in assay [6] was determined as 29.3 µM; in [7], 30.9 µM; in assay [8], 40.8 µM; in assay [9] it was 50.6 µM.
As for `CCN(CCCl)c1cc(CN(C)C)cc(NC(=O)c2ccc(C(=O)Nc3ccccc3)cc2)c1`, the TGI in assay [1] turned out to be 11.9 µM; in assay [2], 3.21 µM; in assay [3], 0.634 µM; in assay [12] it was 0.925 µM; in assay [11], 5.92 µM; in assay [4], 3.14 µM. For the same compound, the TGI worked out at 4.36 µM in assay [5], 5.21 µM in assay [7], 1.16 µM in assay [8] and 4.03 µM in assay [9].
`COc1ccc(NC(=O)CC(=O)N2N=C(C)C(N=Nc3ccc(C(=O)O)cc3)C2=O)cc1` (stereo not drawn): the TGI in [1], in assay [2], in assay [3], in assay [12], in assay [5] and in [6] was above 100 µM in each case. Besides, the TGI in assay [7] and in assay [9] was above 100 µM in each case.
With `COc1ccc(S(=O)(=O)Nc2ccc(-c3csc(N4C(=O)/C(=C/c5cccs5)N=C4c4ccccc4)n3)cc2)cc1Cl`, the TGI in assay [1] is above 100 µM; in assay [2] it was 45.8 µM; in assay [3] it was above 100 µM; in [12] it was above 100 µM; in [11] it was above 100 µM; in assay [5] it was above 100 µM. For the same compound, the TGI in [6], in [7], in assay [8] and in [9] was above 100 µM each time.
Take `O=C(Nc1nccs1)NS(=O)(=O)n1cnc2ccccc21`: the TGI in assay [1], in assay [10], in [2], in assay [11], in [4] and in [5] was above 100 µM each time. Further, the TGI in assay [6], in [7] and in assay [9] was above 100 µM in each case.
As to `CCOC1=NC(C(F)(F)F)(C(F)(F)F)N=C(N2CCCCC2)O1`, the TGI in assay [1], in assay [2], in assay [3], in [11], in [4] and in [5] was above 100 µM each time. The TGI in assay [6], in assay [7], in assay [8] and in assay [9] was above 100 µM in each case.
